Experimental findings from PMC3472114 (Journal of molecular biology, 2012) are described below.

In general, Ki refers to the equilibrium dissociation constant of an inhibitor or competing ligand from its target. By Km is commonly meant the substrate concentration at which the rate is half of its maximum.

Data set [1] concerns the target T1, galactosamine-6-sulfatase (GALNS) (Homo sapiens, UniProt P34059).
T1 sequence (P34059 27-522): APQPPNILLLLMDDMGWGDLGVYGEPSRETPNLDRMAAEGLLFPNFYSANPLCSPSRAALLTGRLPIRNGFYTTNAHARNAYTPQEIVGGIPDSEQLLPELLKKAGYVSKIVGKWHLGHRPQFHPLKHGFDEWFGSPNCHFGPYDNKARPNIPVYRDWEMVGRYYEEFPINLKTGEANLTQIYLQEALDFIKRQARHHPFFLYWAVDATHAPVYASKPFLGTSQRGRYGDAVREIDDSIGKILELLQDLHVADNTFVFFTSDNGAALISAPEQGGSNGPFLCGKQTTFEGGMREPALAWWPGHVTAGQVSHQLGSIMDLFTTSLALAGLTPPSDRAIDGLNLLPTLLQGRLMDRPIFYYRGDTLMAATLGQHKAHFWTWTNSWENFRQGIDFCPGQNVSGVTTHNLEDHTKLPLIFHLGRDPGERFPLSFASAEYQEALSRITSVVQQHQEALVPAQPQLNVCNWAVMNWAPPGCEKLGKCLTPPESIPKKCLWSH
The experiment in a line: biochemical.

Substrate in data set [2]: Cc1cc(=O)oc2cc(O[C@@H]3O[C@H](COS(=O)(=O)O)[C@H](O)[C@H](O)[C@H]3O)ccc12
It counts as biochemical, Homo sapiens. The note with it: Ca2+; Cys79 modified to formylglycine/dihydroxyalanine (DHA) active site.

`O=S(=O)(O)O` [sulfate] yielded a Ki in data set [1] of 570 ± 150 µM.

B1: galactosamine-6-sulfatase (GALNS) (Homo sapiens) (protein)
chain: T1 sequence (P34059 27-522)
As for B1, in data set [2], the Km was found to be 13 ± 2 mM.
